# Results from ChEMBL document CHEMBL4325859, “Research advances on anticancer activities of matrine and its derivatives: An updated overview” (Eur J Med Chem, 2019).
# How the values were obtained:
# MCF7 [1] = assay: Antiproliferative activity against human MCF7 cells after 48 hrs relative to control; format: functional
# MCF7 [2] = assay: Induction of apoptosis in human MCF7 cells at 0.25 to 2 mg/ml (reference value: 1.1 +/- 0.08%); format: functional
# HepG2 [3] = assay: Antiproliferative activity against human HepG2 cells at 1 mg/ml after 48 hrs by MTT assay relative to control; format: functional
# HepG2 [4] = assay: Induction of apoptosis in human HepG2 cells at 0.5 mg/ml by Annexin V-FITC/propidium iodide staining based flow cytometry (reference value: 0.14%); format: functional
# HepG2 [5] = assay: Induction of apoptosis in human HepG2 cells at 2 mg/ml by Annexin V-FITC/propidium iodide staining based flow cytometry (reference value: 0.14%); format: functional
# Bel-7402 = assay: Antiproliferative activity against human Bel7402 cells after 48 hrs by MTT assay; format: functional, cell-based; settings: Bel-7402, 48 h
# SMMC-7721 = assay: Antiproliferative activity against human SMMC7721 cells at 200 ug/ml after 72 hrs by MTT assay relative to control; format: functional
# SGC-7901 = assay: Growth inhibition of human SGC7901 cells at 60 mg/ml after 72 hrs by MTT assay relative to control; format: functional; settings: SGC-7901, 72 h, read-out: GI
# PC-3 [6] = assay: Growth inhibition of human PC3 cells at 6 g/L after 72 hrs relative to control; format: functional; settings: PC-3, 72 h, read-out: GI
# PC-3 [7] = assay: Induction of apoptosis in human PC3 cells assessed as late apoptotic cells at 25 mg/mL (reference value: 2.5%); format: functional
# PC-3 [8] = assay: Induction of apoptosis in human PC3 cells assessed as late apoptotic cells at 50 mg/mL (reference value: 2.5%); format: functional
# CCRF-CEM = assay: Antiproliferative activity against human CCRF-CEM cells after 72 hrs by WST1 assay; format: functional, cell-based
# [9] = Growth inhibition of human MM1R cells after 24 hrs; format: functional; settings: MM.1R
# U-266 = assay: Induction of apoptosis in human U266 cells at 2 g/L after 48 hrs by Annexin V-FITC/propidium iodide staining based flow cytometry (Rvb < 3%); format: functional
# RPMI-8226 = assay: Antiproliferative activity against human RPMI8226 cells after 24 hrs by MTT assay; format: functional, cell-based; settings: RPMI-8226, 24 h
# T-24 = assay: Antiproliferative activity against human T24 cells after 48 hrs by CCK8 assay; format: functional, cell-based; settings: T-24, 48 h
# KYSE-150 cell line [10] = assay: Antiproliferative activity against human KYSE-150 cells assessed as cell viability at 1.5 mg/ml after 24 hrs by MTT assay relative to control; format: functional; settings: KYSE-150, 24 h, read-out: Activity
# KYSE-150 cell line [11] = assay: Antiproliferative activity against human KYSE-150 cells assessed as cell viability at 2 mg/ml after 24 hrs by MTT assay relative to control; format: functional; settings: KYSE-150, 24 h, read-out: Activity
# KYSE-150 cell line [12] = assay: Antiproliferative activity against human KYSE-150 cells assessed as cell viability at 3 mg/ml after 24 hrs by MTT assay relative to control; format: functional; settings: KYSE-150, 24 h, read-out: Activity
# LoVo = assay: Antiproliferative activity against human LoVo cells after 24 hrs by MTT assay; format: functional, cell-based
# HT-29 [13] = assay: Growth inhibition of human HT-29 cells at 16 ml/L after 36 hrs by MTT assay relative to control; format: functional
# HT-29 [14] = assay: Growth inhibition of human HT-29 cells at 2 ml/L after 48 hrs by MTT assay relative to control; format: functional
# HT-29 [15] = assay: Growth inhibition of human HT-29 cells at 32 ml/L after 48 hrs by MTT assay relative to control; format: functional
# HT-29 [16] = assay: Growth inhibition of human HT-29 cells after 24 hrs by MTT assay; format: functional, cell-based; settings: HT-29, 24 h
# [17] = Antiproliferative activity against human GBC-SD cells assessed as cell survival at 1 mmol/L up to 72 hrs by MTT assay (reference value: 100%); format: functional; settings: read-out: Survival
# SAOS-2 = assay: Growth inhibition of human Saos2 cells after 48 hrs by MTT assay; format: functional, cell-based; settings: SAOS-2, 48 h
# MG-63 = assay: Growth inhibition of human MG63 cells at 3.2 mg/ml after 48 hrs by MTT assay relative to control; format: functional; settings: MG-63, 48 h, read-out: GI
# UMR108 [18] = assay: Growth inhibition of rat UMR108 cells assessed as cell proliferation at 0.5 mg/ml after 48 hrs by MTT assay (reference value: 0.404 +/- 0.008%); format: functional; settings: UMR108, 48 h, read-out: Activity
# UMR108 [19] = assay: Growth inhibition of rat UMR108 cells assessed as cell proliferation at 1 mg/ml after 48 hrs by MTT assay (reference value: 0.404 +/- 0.008%); format: functional; settings: UMR108, 48 h, read-out: Activity
# [20] = Growth inhibition of human GRC1 cells at 0.5 g/L after 24 hrs by MTT assay relative to control; format: functional; settings: read-out: GI
# [21] = Growth inhibition of human GRC1 cells at 0.8 g/L after 24 hrs by MTT assay relative to control; format: functional; settings: read-out: GI
# [22] = Growth inhibition of human GRC1 cells at 1.5 g/L after 24 hrs by MTT assay relative to control; format: functional; settings: read-out: GI
# [23] = Growth inhibition of human GRC1 cells at 1.5 g/L after 48 hrs by MTT assay relative to control; format: functional; settings: read-out: GI
# [24] = Growth inhibition of human GRC1 cells at 0.3 g/L after 72 hrs by MTT assay relative to control; format: functional; settings: read-out: GI
# [25] = Growth inhibition of human GRC1 cells at 0.8 g/L after 72 hrs by MTT assay relative to control; format: functional; settings: read-out: GI
# [26] = Growth inhibition of human GRC1 cells at 1 g/L after 72 hrs by MTT assay relative to control; format: functional; settings: read-out: GI
# [27] = Growth inhibition of human GRC1 cells at 0.8 g/L after 96 hrs by MTT assay relative to control; format: functional; settings: read-out: GI
# [28] = Growth inhibition of human GRC1 cells at 1 g/L after 96 hrs by MTT assay relative to control; format: functional; settings: read-out: GI
# D341 cell line = assay: Induction of apoptosis in human D341 cells at 0.5 to 2 mg/ml after 24 to 72 hrs by Annexin V-FITC/propidium iodide staining based flow cytometry (reference value: 5.74 +/- 0.09%); format: functional
# HT-29 [29] = assay: Growth inhibition of human HT-29 cells at 16 mg/ml after 48 hrs by MTT assay relative to control; format: functional; settings: HT-29, 48 h, read-out: GI
# M21 [30] = assay: Growth inhibition of human M21 cells assessed as cell viability at 5 mg/ml after 48 hrs by MTT assay (reference value: 98%); format: functional; settings: M21, 48 h, read-out: Activity
# M21 [31] = assay: Growth inhibition of human M21 cells after 48 hrs by MTT assay; format: functional, cell-based; settings: M21, 48 h
# M21 [32] = assay: Induction of apoptosis in human M21 cells at 0.8 mg/ml after 48 hrs by Annexin V-FITC/propidium iodide staining based flow cytometry relative to control; format: functional
# HK-2 = assay: Antiproliferative activity against human HK2 cells after 48 hrs by CCK8 assay; format: functional, cell-based; settings: HK-2, 48 h
# HepG2 [33] = assay: Antiproliferative activity against human HepG2 cells by MTT assay; format: functional, cell-based
smiles,measurement,setting,value
O=C1CCC[C@@H]2[C@H]3CCCN4CCC[C@@H](CN12)[C@@H]34 [MATRINE],Activity,MCF7 [1],7.56 - 53.92%
same,Activity,MCF7 [2],4.17 - 19.63%
same,Activity,HepG2 [3],14.81%
same,Activity,HepG2 [4],28.91%
same,Activity,HepG2 [5],38.8%
same,IC50,Bel-7402,3.22 mM
same,Activity,SMMC-7721,77.4%
same,inhibition of growth at 60000 µg/mL,SGC-7901,40%
same,inhibition of growth at 6000 µg/mL,PC-3 [6],90%
same,Activity,PC-3 [7],14.6%
same,Activity,PC-3 [8],21%
same,IC50,CCRF-CEM,9.63 mM
same,IC50,[9],5.4 mM
same,Activity,U-266,71.05%
same,IC50,RPMI-8226,2250 mg/L
same,IC50,T-24,4.6 mM
same,viability at 1500 µg/mL,KYSE-150 cell line [10],64%
same,viability at 2000 µg/mL,KYSE-150 cell line [11],53.7%
same,viability at 3000 µg/mL,KYSE-150 cell line [12],29.6%
same,IC50,LoVo,4.63 mM
same,growth inhibition (GI),HT-29 [13],68.29%
same,growth inhibition (GI),HT-29 [14],29.73%
same,growth inhibition (GI),HT-29 [15],84.2%
same,IC50,HT-29 [16],6.32 to 50.3 mM
same,viability at 1000 µM,[17],72.1%
same,IC50,SAOS-2,4.27 mM
same,inhibition of growth at 3200 µg/mL,MG-63,86%
same,growth at 500 µg/mL,UMR108 [18],0.313%
same,growth at 1000 µg/mL,UMR108 [19],0.249%
same,inhibition of growth at 500 µg/mL,[20],11.5%
same,inhibition of growth at 800 µg/mL,[21],20.5%
same,inhibition of growth at 1500 µg/mL,[22],31.6%
same,inhibition of growth at 1500 µg/mL,[23],32%
same,inhibition of growth at 300 µg/mL,[24],14.9%
same,inhibition of growth at 800 µg/mL,[25],25.4%
same,inhibition of growth at 1000 µg/mL,[26],29.2%
same,inhibition of growth at 800 µg/mL,[27],36.2%
same,inhibition of growth at 1000 µg/mL,[28],45.8%
same,Activity,D341 cell line,56.1%
same,inhibition of growth at 16000 µg/mL,HT-29 [29],75.8%
same,viability at 5000 µg/mL,M21 [30],20%
same,IC50,M21 [31],3.1 mM
same,Activity,M21 [32],40.3%
same,IC50,HK-2,4.71 mM
same,IC50,HepG2 [33],8.07 mM
